Assay results taken from BindingDB's records for patent US20250313563 (The Broad Institute, 2025).
pIC50: −log10 of the molar value. Where “and” joins values, the source holds several entries; their conditions need not be identical. Identical values can stand only once.

Key:
[1] = molecular target: Glycogen synthase kinase-3 beta (Homo sapiens, UniProt P49841); assay: TR-FRET Assay
Procedure, shortened: (§1)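 Compound was preincubated 30 min in assay buffer before the kinase reaction, which was quenched with EDTA. Phosphorylation was detected by TR-FRET after adding a solution of 40 nM streptavidin-d2 and 2 nM Tb-labelled anti-pSer641 antibody.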

[2] = molecular target: Glycogen synthase kinase-3 alpha (Homo sapiens, UniProt P49840); assay: TR-FRET Assay
Procedure, shortened: as §1

Glycogen synthase kinase-3 beta, sequence (P49841 whole entry): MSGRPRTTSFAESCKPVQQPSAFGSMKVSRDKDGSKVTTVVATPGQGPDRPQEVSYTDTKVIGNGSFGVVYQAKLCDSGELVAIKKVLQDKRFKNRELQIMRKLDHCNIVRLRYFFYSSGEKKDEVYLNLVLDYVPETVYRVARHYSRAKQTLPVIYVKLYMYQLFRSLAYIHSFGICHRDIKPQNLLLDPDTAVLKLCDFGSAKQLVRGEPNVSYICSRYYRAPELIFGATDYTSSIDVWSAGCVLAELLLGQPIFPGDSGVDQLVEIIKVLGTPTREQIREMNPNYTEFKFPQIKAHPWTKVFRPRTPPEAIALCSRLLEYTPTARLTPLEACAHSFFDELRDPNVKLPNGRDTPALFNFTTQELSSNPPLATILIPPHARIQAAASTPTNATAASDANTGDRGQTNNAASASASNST
Glycogen synthase kinase-3 alpha, sequence (P49840 whole entry): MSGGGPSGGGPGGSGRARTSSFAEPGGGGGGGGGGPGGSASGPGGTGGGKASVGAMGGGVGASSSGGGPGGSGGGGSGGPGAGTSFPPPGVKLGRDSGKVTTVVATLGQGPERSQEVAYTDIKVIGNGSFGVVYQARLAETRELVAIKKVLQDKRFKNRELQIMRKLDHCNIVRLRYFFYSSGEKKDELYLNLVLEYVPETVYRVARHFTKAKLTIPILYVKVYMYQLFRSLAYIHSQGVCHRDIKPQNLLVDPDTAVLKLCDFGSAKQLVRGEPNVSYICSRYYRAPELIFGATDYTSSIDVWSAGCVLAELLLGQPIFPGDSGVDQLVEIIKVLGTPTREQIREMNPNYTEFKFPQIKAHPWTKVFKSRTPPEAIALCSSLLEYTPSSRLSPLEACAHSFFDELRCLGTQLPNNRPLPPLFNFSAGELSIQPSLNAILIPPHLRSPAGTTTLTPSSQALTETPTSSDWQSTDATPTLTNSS

| SMILES | pIC50 [1] | pIC50 [2] |
| --- | --- | --- |
| CC[C@@]1(c2cccc(S(C)(=O)=O)c2)C2=CN=NC2NC2=C1C(=O)CC(C)(C)C2 (stereo not given in full) [US20250313563, Compound 826719] | < 5.30 | 5.30 to 6.00 |
| CC1CCCC12C1=C(N=NC1)NC1=C2C(=O)CC(C)(C)C1 (stereo not given) [US20250313563, Compound 826765] | 5.30 to 6.00 | 6.00 to 7.00 |
| CC[C@@]1(c2ccccc2)C2=CN=NC2NC2=C1C(=O)[C@@H](F)C(C)(C)C2 (stereo not given in full) [US20250313563, Compound 826767] | < 5.30 | < 5.30 |
| CC[C@]1(c2ccccc2)C2=CN=NC2NC2=C1C(=O)[C@@H](F)C(C)(C)C2 (stereo not given in full) [US20250313563, Compound 826769] | < 5.30 | < 5.30 |
| CC[C@]1(c2cccc(C(F)(F)F)c2)C2=CN=NC2NC2=C1C(=O)N(C)C(C)(C)C2 (stereo not given in full) [US20250313563, Compound 826790] | 5.30 to 6.00 | 6.00 to 7.00 |
| CC[C@@]1(c2cccc(C(F)(F)F)c2)C2=CN=NC2NC2=C1C(=O)N(C)C(C)(C)C2 (stereo not given in full) [US20250313563, Compound 826791] | 5.30 to 6.00 | 6.00 to 7.00 |
| CCC1(c2ccccc2)C2=C(N=NC2)NC2=C1C(=O)C(C)(C)CC2 (stereo not given) [US20250313563, Compound 835310] | 5.30 to 6.00 | 6.00 to 7.00 |
| CC[C@@]1(c2cccc(Br)c2)C2=CN=NC2NC2=C1C(=O)[C@H](F)C(C)(C)C2 (stereo not given in full) [US20250313563, Compound 835313] | < 5.30 | < 5.30 |
| CC[C@]1(c2cccc(Br)c2)C2=CN=NC2NC2=C1C(=O)[C@@H](F)C(C)(C)C2 (stereo not given in full) [US20250313563, Compound 835315] | 5.30 to 6.00 | 6.00 to 7.00 |
| CN1CCC2(C1)C1=C(N=NC1)NC1=C2C(=O)CC(C)(C)C1 (stereo not given) [US20250313563, Compound 841867] | < 5.30 | < 5.30 |
| CCC1(c2cccc(N(C)c3ccncc3)c2)C2=CN=NC2NC2=C1C(=O)CC(C)(C)C2 (stereo not given) [US20250313563, Compound 853910] | 5.30 to 6.00 | 6.00 to 7.00 |
| CC[C@@]1(c2cccc(C(F)(F)F)c2)C2=CN=NC2NC2=C1C(=O)N(C(C)C)CC2 (stereo not given in full) [US20250313563, Compound 857362] | < 5.30 | < 5.30 |
| CCC1(c2ccccc2)C2=C(N=NC2)NC2=C1C(=O)C1CCC21 (stereo not given) [US20250313563, Compound 861716] | < 5.30 | 5.30 to 6.00 |
| CCC1(c2ccccc2)C2=C(N=NC2)NC2=C1C(=O)C(C)(C)SC2 (stereo not given) [US20250313563, Compound 862028] | 5.30 to 6.00 | 6.00 to 7.00 |
| CC[C@]1(c2cccc(-c3ccnc(C)c3)c2)C2=CN=NC2NC2=C1C(=O)CC(C)(C)C2 (stereo not given in full) [US20250313563, Compound 865169] | 6.00 to 7.00 and < 5.30 | > 7.00 and 6.00 to 7.00 |
| CCC1(c2cccc(N3[C@H](C)CCC[C@@H]3C)c2)C2=CN=NC2NC2=C1C(=O)CC(C)(C)C2 (stereo not given in full) [US20250313563, Compound 865172] | 5.30 to 6.00 | 6.00 to 7.00 |
| CC1(C)CC(=O)C2=C(C1)NC1=C(CN=N1)C21CCC(C(F)(F)F)CC1 (stereo not given) [US20250313563, Compound 865193] | > 7.00 and 5.30 to 6.00 | > 7.00 and 6.00 to 7.00 |
| CCC1(c2cccc(CN(C)C(C)=O)c2)C2=CN=NC2NC2=C1C(=O)CC(C)(C)C2 (stereo not given) [US20250313563, Compound 865194] | 5.30 to 6.00 | 6.00 to 7.00 |
| CCC1(c2cccc(CN(C)C(=O)C(C)C)c2)C2=CN=NC2NC2=C1C(=O)CC(C)(C)C2 (stereo not given) [US20250313563, Compound 865195] | < 5.30 | 6.00 to 7.00 |
| CCC1(c2cccc(CN(C)C(=O)COC)c2)C2=CN=NC2NC2=C1C(=O)CC(C)(C)C2 (stereo not given) [US20250313563, Compound 865196] | < 5.30 | 6.00 to 7.00 |
| CC[C@@]1(c2ccccc2)C2=CN=NC2NC2=C1C(=O)[C@@H](C)C[C@@H]2C (stereo not given in full) [US20250313563, Compound 865198] | 5.30 to 6.00 | 6.00 to 7.00 |
| CC[C@]1(c2ccccc2)C2=CN=NC2NC2=C1C(=O)[C@H](C)C[C@H]2C (stereo not given in full) [US20250313563, Compound 865199] | < 5.30 | 5.30 to 6.00 |

Other lines, results leading:

| pIC50 [1] | pIC50 [2] | SMILES |
| --- | --- | --- |
| 5.30 to 6.00 | 6.00 to 7.00 | CC(=O)N1CCC2(C1)C1=CN=NC1NC1=C2C(=O)CC(C)(C)C1 (stereo not given) [US20250313563, Compound 826763] |
| 6.00 to 7.00 | > 7.00 | CCC1(c2cccc(Br)c2)C2=CN=NC2NC2=C1C(=O)C(F)C(C)(C)C2 (stereo not given) [US20250313563, Compound 826764] |
| 6.00 to 7.00 | 6.00 to 7.00 | CC[C@@]1(c2ccccc2)C2=CN=NC2NC2=C1C(=O)[C@H](F)C(C)(C)C2 (stereo not given in full) [US20250313563, Compound 826766] |
| 6.00 to 7.00 | > 7.00 | CC[C@]1(c2ccccc2)C2=CN=NC2NC2=C1C(=O)[C@H](F)C(C)(C)C2 (stereo not given in full) [US20250313563, Compound 826768] |
| 6.00 to 7.00 | 6.00 to 7.00 | CC1(C)CC(=O)C2=C(C1)NC1N=NC(CCC(F)(F)F)=C1C2(C)c1ccccc1 (stereo not given) [US20250313563, Compound 828845] |
| > 7.00 | > 7.00 | CC[C@]1(c2cccc(Br)c2)C2=C(C[C@@H](C)CC2=O)NC2N=NC(C(F)(F)F)=C21 (stereo not given in full) [US20250313563, Compound 828847] |
| > 7.00 | > 7.00 | CC[C@]1(c2cccc(Br)c2)C2=C(C[C@H](C)CC2=O)NC2N=NC(C(F)(F)F)=C21 (stereo not given in full) [US20250313563, Compound 828848] |
| 6.00 to 7.00 | 6.00 to 7.00 | CC[C@@]1(c2cccc(Br)c2)C2=C(C[C@@H](C)CC2=O)NC2N=NC(C(F)(F)F)=C21 (stereo not given in full) [US20250313563, Compound 828849] |
| 6.00 to 7.00 | 6.00 to 7.00 | CC[C@@]1(c2cccc(Br)c2)C2=C(C[C@H](C)CC2=O)NC2N=NC(C(F)(F)F)=C21 (stereo not given in full) [US20250313563, Compound 828850] |
| 6.00 to 7.00 | > 7.00 | CCC1(c2cccc(-c3ccnc(C)c3)c2)C2=CN=NC2NC2=C1C(=O)CC(C)(C)C2 (stereo not given) [US20250313563, Compound 840857] |
| 6.00 to 7.00 | 6.00 to 7.00 | CC1(C)CC(=O)C2=C(C1)NC1N=NC(CCC(F)(F)F)=C1C21CCc2c(F)cccc21 (stereo not given) [US20250313563, Compound 841868] |
| 6.00 to 7.00 | > 7.00 | CCC1(c2cccc(-n3ccnc3)c2)C2=CN=NC2NC2=C1C(=O)CC(C)(C)C2 (stereo not given) [US20250313563, Compound 854926] |
| 6.00 to 7.00 | > 7.00 | CCC1(c2cccc(-c3ccncc3)c2)C2=CN=NC2NC2=C1C(=O)CC(C)C2 (stereo not given) [US20250313563, Compound 856947] |
| > 7.00 | 6.00 to 7.00 | CC1(C)CC(=O)C2=C(C1)NC1N=NC(CCC(F)(F)F)=C1[C@]2(C)c1ccccc1 (stereo not given in full) [US20250313563, Compound 856949] |
| 6.00 to 7.00 | > 7.00 | CC[C@]1(c2cccc(C(F)(F)F)c2)C2=CN=NC2NC2=C1C(=O)N(C(C)C)CC2 (stereo not given in full) [US20250313563, Compound 857336] |
| > 7.00 | > 7.00 | CCC1(c2cccc(N(C)c3cccnc3)c2)C2=CN=NC2NC2=C1C(=O)CC(C)(C)C2 (stereo not given) [US20250313563, Compound 865168] |
| 6.00 to 7.00 | > 7.00 | CCC1(c2cccc(N3CCCC3=O)c2)C2=CN=NC2NC2=C1C(=O)CC(C)(C)C2 (stereo not given) [US20250313563, Compound 865171] |
| 6.00 to 7.00 | > 7.00 | CC[C@@]1(c2ccccc2)C2=CN=NC2NC2=C1C(=O)[C@H](C)C[C@H]2C (stereo not given in full) [US20250313563, Compound 865201] |
